Measurements published in publication PMC7497679, “Structure-based design, synthesis, and evaluation of the biological activity of novel phosphoroorganic small molecule IAP antagonists” (Investigational New Drugs, 2020).

Experiments:
A549 = test: Antiproliferative activity, SRB method; format: cell-based, human; conditions: Homo sapiens, A549, 10 µM, 72 h, read-out: mean proliferation inhibition at highest concentration used, A549
Text: (§1) MDA-MB-231 (human breast cancer), MCF10A (human, nontumorigenic mammary gland epithelial cells), A549 (human nonsmall-cell lung cancer), UMUC-3 (human bladder cancer) and LoVo (human colon cancer) cell lines were obtained from the American Type Culture Collection (ATCC; Rockville, Maryland, USA). The MCF-7 cell line (human breast cancer) was obtained from the European Collection of Cell Cultures (ECACC; Salisbury, UK). All cell lines were maintained at the Hirszfeld Institute of Immunology and Experimental Therapy (HIIET), Wrocław, Poland. MDA-MB-231 cells were cultured in RPMI1640 medium (Thermo Fisher Scientific, Warszawa, Poland) supplemented with 2 mM L-glutamine, 1 mM sodium pyruvate, and 10% fetal bovine serum (all from Sigma-Aldrich, Poznań, Poland). The MCF10A cell line was cultured in Ham’s F12 medium with glutamine (Corning) supplemented with 5% (v/v) fetal bovine serum (FBS), 5% (v/v) horse serum, 10 µg/mL insulin, 0.05 µg/mL cholera toxin, 0.5 µg/mL hydrocortisone, and 20 ng/mL hEGF (all from Sigma-Aldrich). A549 and LoVo cells were cultured in a 1:1 (v/v) mixture of RPMI1640 and Opti-MEM (both from HIIET) supplemented with 5% (v/v) FBS and 2 mM L-glutamine. The UMUC-3 cell line was cultured in high glucose DMEM (Thermo Fisher Scientific) supplemented with 10% FBS and 2 mM Lglutamine. The MCF-7 line was cultured in Eagle’s minimal essential medium (EMEM; Thermo Fisher Scientific) supplemented with 10% (v/v) FBS, 2 mM L-glutamine, 1% (v/v) nonessential amino acids, and 8 µg/mL insulin (all from Sigma-Aldrich). All culture media contained 100 µg/mL streptomycin (Sigma-Aldrich) and 100 U/mL penicillin (Polfa Tarchomin SA, Warszawa, Poland). The cells were grown at 37 °C in a humid atmosphere saturated with 5% CO2.
(§2) Antiproliferative activity was assessed in six cell lines utilizing the sulforhodamine B (SRB) method. Briefly, cells were seeded in 96-well plates (Sarstedt, Warszawa, Poland) at a density of 5 × 10^3 cells/well, and after overnight incubation, the cells were exposed to compounds at various concentrations. After 72 h, the plates were fixed with 50% (v/v) TCA (all from Sigma-Aldrich), washed with tap water, and the precipitated proteins were labeled with 0.1% (w/v) SRB solution in 1% (v/v) AcOH. Next, the plates were washed with 1% (v/v) AcOH, and the remaining SRB dye was solubilized with 10 mM unbuffered TRIS solution. The absorbance was measured using a Biotek Hybrid H4 reader (BioTek Instruments, VT, USA) at 540 nm. Crude results were analyzed using a previously described method, and the results are expressed as the IC50 (compound concentration that reduced cell growth by 50%) compared to the vehicletreated control (0.1% (v/v) DMSO). The samples were analyzed in triplicate, and each experiment was repeated at least three times.

MCF-7 = test: Antiproliferative activity, SRB method; format: cell-based, human; conditions: Homo sapiens, MCF7, 10 µM, 72 h, read-out: mean proliferation inhibition at highest concentration used, MCF-7
Text: as §1, §2

UMUC-3 = test: Antiproliferative activity, SRB method; format: cell-based, human; conditions: Homo sapiens, UMUC3, 10 µM, 72 h, read-out: mean proliferation inhibition at highest concentration used, UMUC-3
Text: as §1, §2

LoVo = test: Antiproliferative activity, SRB method; format: cell-based, human; conditions: Homo sapiens, LoVo, 10 µM, 72 h, read-out: mean proliferation inhibition at highest concentration used, LoVo
Text: as §1, §2

MDA-MB-231 = test: Antiproliferative activity, SRB method; format: cell-based, human; conditions: Homo sapiens, MDA-MB-231, 72 h, read-out: IC50 ± SD (n = 3) MDA-MB-231
Text: as §1, §2

MCF-10A = test: Antiproliferative activity, SRB method; format: cell-based, human; conditions: Homo sapiens, MCF-10A, 10 µM, 72 h, read-out: mean proliferation inhibition at highest concentration used, MCF-10A
Text: as §1, §2

XIAP BIR3 domain = target: T1, XIAP BIR3 domain (Homo sapiens, UniProt P98170); test: Fluorescence polarization inhibition (competition) assay; format: binding; conditions: XIAP BIR3 50 nM, fluorescent probe 4 2 nM; read-out: EC50
T1 construct: fluorescent probe 4 and the XIAP BIR3 domain (Sino Biological, Beijing, China) were used for all measurements; purchased Sino Biological, Beijing, China
Experimental: The fluorescence polarization assay was performed at r.t. in Corning 384-well black, polystyrene flat bottom plates (Corning, NY, USA) on a Synergy H4 Hybrid Reader (BioTek, Bad Friedrichshall, Germany). For fluorescence polarization measurements, (milipolarization units, mP) 484/20 nm excitation and 528/20 nm emission filters were selected. Phosphate buffer (pH 7.5) supplemented with γ-globulin (100 µg/mL) and NaN3 (0.02% w/v), fluorescent probe 4 and the XIAP BIR3 domain (Sino Biological, Beijing, China) were used for all measurements. All experiments were performed in duplicate. The obtained fluorescence polarization assay data were analyzed with Prism 5.0 Software (GraphPad Software, San Diego, ca.).
After a 15 min incubation at r.t., fluorescent probe 4 (2 nM) was added. The values were measured 30 min after the moment the probe was added. The assay was performed in phosphate buffer with a final DMSO concentration of 1.4% (v/v). […] In order to evaluate the quality and precision of the performed screening assay, we determined the Z´ factor as described by Zhang et al.. The obtained fluorescence polarization values were used to determine the percent inhibition, which was plotted as a function of the protein concentration. The EC50 and Ki values were calculated with GraphPad software (log(agonist) vs. response (variable slope) model) in combination with the web tool developed by Nikolovska-Coleska et al..
Fluorescence polarization inhibition assay and data analysis for 41m and 42m compounds was performed as described in the Material and Methods section of the manuscript. Briefly, 50 nM solution of the BIR3 XIAP protein in polarization buffer was added into phosphoroorganic compound solution (from 50 μM to 0.0537 nM). After 15 min incubation at r.t. the fluorescent probe 4 (2 nM) was added.
The values were read after 30 minutes from the moment the probe was added. The obtained fluorescence polarization values were used to determine the percentage of inhibition which was plotted as a function of the protein concentration (Supplementary Figure S4).
(1 picture or pasted object on this page, not shown here)

T1 sequence (P98170 252-356 limits assumed): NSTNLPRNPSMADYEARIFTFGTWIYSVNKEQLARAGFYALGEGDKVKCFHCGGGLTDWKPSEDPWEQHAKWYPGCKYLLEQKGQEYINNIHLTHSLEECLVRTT

Structure (SMILES): CN[C@@H](C)C(=O)N[C@H](C(=O)N1CCC[C@H]1C(=O)Nc1snnc1-c1ccccc1)C1CCCCC1 [GDC-0152, reference compound]
- inhibition at 10 µM (A549): 13%
- inhibition at 10 µM (MCF-7): 18%
- inhibition at 10 µM (UMUC-3): 13%
- inhibition at 10 µM (LoVo): 9%
- IC50 (MDA-MB-231): 0.88 ± 0.21 µM
- inhibition at 10 µM (MCF-10A): 1%
- EC50 (XIAP BIR3 domain): 0.01 µM
